# Source: patent publication US4956345A, “2-alkynyladenosines as antihypertensive agents” (Yamasa Shoyu Kabushiki Kaisha, priority 1985, dated 1990)
# Like-named read-outs stand apart in the source and are kept apart here.
# Assays:
# heart rate = assay: Test 3: change in heart rate in NR; type: in vivo, male Wistar rats (normotensive rats; conditions: 100 μg/kg, procedure of Test 2, 10- to 12-week-old male Wistar rats
# Procedure: (§1) The procedure of Test 2 was followed with 10- to 12-week-old male Wistar rats (divided into groups of three rats each) to measure the hypotensive effects of the respective pharmaceutical preparations (100 μg/kg). Simultaneously, the change in heart rate was measured. The heart rate was measured by an ictometer based on the systolic blood pressure as a trigger.
# blood pressure in NR [1] = assay: Test 3: effect on the blood pressure in NR, intravenous; type: in vivo, male Wistar rats (normotensive rats; conditions: 100 μg/kg, procedure of Test 2 (femoral vein), 10- to 12-week-old male Wistar rats
# Procedure: (§2) Thirty-two-week-old male SHRs (divided into groups of three rats each) were anesthetized with urethane (1.1 g/kg, i.p.), and the blood pressure of each of the rats delivered from the common carotid artery was recorded on a polygraph through a pressure transducer (Model MPU-0.5).
# (§3) The pharmaceutical preparation was administered through a cannula inserted into the femoral vein of the rat at a rate of 0.5 ml/kg, and the blood pressure was measured continuously from before administration to 30 minutes after administration.
# as §1
# blood pressure in SHR [2] = assay: Test 1: effect on the blood pressure in SHR, oral, tail artery sphygmomanometer; type: in vivo, spontaneously hypertensive rats (SHR); conditions: 12- to 15-week-old male SHR, maximum within 2, 4, 6 and 8 hours
# Procedure: To twelve- to fifteen-week-old male SHRs were orally administered test compounds each suspended in 0.5% CMC/physiological saline at a rate of 2 ml/kg. The blood pressure of the thus treated SHRs was measured by means of a tail artery sphygmomanometer (supplied by Nalco Co., Model PE-300) prior to the oral administration and at 2, 4, 6 and 8 hours thereafter. Reduction in blood pressure was calculated on the basis of the values thus obtained, and the maximum reduction levels attained by the respective compounds are summarized in TABLE 2. Each test compound was evaluated with a group of 4 rats.
# blood pressure in SHR [3] = assay: Test 2: effect on the blood pressure in SHR, intravenous, anesthetized; type: in vivo, spontaneously hypertensive rats (SHR), male; conditions: for Reduction in blood pressure (-Δmax, mmHg): 100 μg/kg, femoral vein, 32-week-old male SHR, urethane anesthesia, 30 minutes; for selectivity of hypotensive effect, SHR versus NR (in words): TABLES 3 and 4, 100 μg/kg
# Procedure: as §2, §3
# heart = conditions: side effect, background statement; cited from earlier work
# adenosine deaminase = conditions: background statement; cited from earlier work
# male Jcl:ICR mice = assay: Test 5: Acute toxicity; type: in vivo
# Procedure: (§4) The acute toxicity of Compound 8(n=13) was tested with seven-week-old male Jcl:ICR mice.
# (§5) The physically allowable doses of Compound 8 for intraperitoneal administration and oral administration were 800 mg/kg and 1,300 mg/kg, respectively.
# blood pressure in SHR [4] = assay: Test 4: effect on the blood pressure in SHR, oral; type: in vivo, spontaneously hypertensive rats (SHR), male; conditions: 10 mg/kg
# Test 5: Acute toxicity = type: in vivo; conditions: mouse, in vivo
# Procedure: as §4, §5
# blood pressure in NR [5] = assay: Test 4: effect on the blood pressure in NR, oral; type: in vivo, male Wistar rats (normotensive rats; conditions: Wistar rat, 18- to 20-week-old male, 10 mg/kg
# Procedure: Eighteen- to twenty-week-old male SHR (divided into groups of four rats each) and eighteen- to twenty-week-old male Wistar rats (divided into groups of four rats each) were orally administered with Compound 8(n=13) in the same manner as in Test 2 at a dose of 10 mg/kg, and the blood pressure of each of the rats was measured.
Structure (SMILES),Change in heart rate (ΔHR) (heart rate),"Reduction in blood pressure (-Δmax, mmHg) (blood pressure in NR [1]) [mmHg]","Reduction in blood pressure (-Δmax, mmHg) (blood pressure in SHR [2]; 3 mg/kg) [mmHg]",also measured
CCCCCCCCCCCCCCCCC#Cc1nc(N)c2ncn([C@@H]3O[C@H](CO)[C@@H](O)[C@H]3O)c2n1 [Compound 10],-5,10,46,
CCCCCCCCCCCCC#Cc1nc(N)c2ncn([C@@H]3O[C@H](CO)[C@@H](O)[C@H]3O)c2n1 [Compound 7],0,10,65,"Reduction in blood pressure (-Δmax, mmHg) (blood pressure in SHR [3]): 21 mmHg; selectivity of hypotensive effect, SHR versus NR (in words) (blood pressure in SHR [3]): acted selectively on SHR"
CCCCC#Cc1nc(N)c2ncn([C@@H]3O[C@H](CO)[C@@H](O)[C@H]3O)c2n1 [Compound 2],-36,42,,"Reduction in blood pressure (-Δmax, mmHg) (blood pressure in SHR [2]; 1 mg/kg): > 136 mmHg"
CCCCCCCCCCCCCCCC#Cc1nc(N)c2ncn([C@@H]3O[C@H](CO)[C@@H](O)[C@H]3O)c2n1 [Compound 9],-6,3,35,
CCCC#Cc1nc(N)c2ncn([C@@H]3O[C@H](CO)[C@@H](O)[C@H]3O)c2n1 [Compound 1],-48,21,,
Nc1ncnc2c1ncn2[C@@H]1O[C@H](CO)[C@@H](O)[C@H]1O [adenosine],,,,suppressive effect on the heart (heart): strong suppressive effect on the heart; deamination by adenosine deaminase (adenosine deaminase): rapidly deaminated by adenosine deaminase
CCCCCCC#Cc1nc(N)c2ncn([C@@H]3O[C@H](CO)[C@@H](O)[C@H]3O)c2n1 [Compound 4],-288,55,,"Reduction in blood pressure (-Δmax, mmHg) (blood pressure in SHR [2]; 1 mg/kg): 69 mmHg"
CCCCCCCCC#Cc1nc(N)c2ncn([C@@H]3O[C@H](CO)[C@@H](O)[C@H]3O)c2n1 [Compound 5],-18,24,106,
CCCCCC#Cc1nc(N)c2ncn([C@@H]3O[C@H](CO)[C@@H](O)[C@H]3O)c2n1 [Compound 3],-180,48,,
CCCCCCCCCCC#Cc1nc(N)c2ncn([C@@H]3O[C@H](CO)[C@@H](O)[C@H]3O)c2n1 [Compound 6],-12,26,65,"Reduction in blood pressure (-Δmax, mmHg) (blood pressure in SHR [3]): 20 mmHg; selectivity of hypotensive effect, SHR versus NR (in words) (blood pressure in SHR [3]): substantially equal hypotensive effect on SHR and NR; mortality, intraperitoneal administration of 500 mg/kg (male Jcl:ICR mice; mouse, in vivo): all the five mice forming one group died"
CCCCCCCCCCCCCCC#Cc1nc(N)c2ncn([C@@H]3O[C@H](CO)[C@@H](O)[C@H]3O)c2n1 [Compound 8],0,5,48,"Reduction in blood pressure (-Δmax, mmHg) (blood pressure in SHR [3]): 16 mmHg; selectivity of hypotensive effect, SHR versus NR (in words) (blood pressure in SHR [3]): acted selectively on SHR; selectivity of hypotensive effect on SHR, oral (in words) (blood pressure in SHR [4]; SHR versus Wistar rat, TABLE 5): tendency of Compound 8(n=13) to act selectively on SHR; Reduction in blood pressure (-Δ, mmHg), 1 hr. after administration (blood pressure in SHR [4]; SHR, 18- to 20-week-old male, 1 hr): 41 mmHg; Reduction in blood pressure (-Δ, mmHg), 2 hrs. after administration (blood pressure in SHR [4]; SHR, 18- to 20-week-old male, 2 hrs): 42 mmHg; toxicity compared with Compound 6 (in words) (male Jcl:ICR mice; compared with long-chain compound such as Compound 6): less toxic; mortality at maximum doses (male Jcl:ICR mice; mouse, in vivo): None of the mice administered with the test compound at these maximum doses, divided into groups of five mice each, died; LD50 (Test 5: Acute toxicity; ip, read-out: LD50, intraperitoneal administration): > 800 mg/kg; selectivity ratio (Test 5: Acute toxicity; po): ≥ 400; LD50 (Test 5: Acute toxicity; po, read-out: LD50, oral administration): > 1300 mg/kg; Reduction in blood pressure (-Δ, mmHg), 1 hr. after administration (blood pressure in NR [5]; 1 hr): 16 mmHg; Reduction in blood pressure (-Δ, mmHg), 2 hrs. after administration (blood pressure in NR [5]; 2 hrs): 24 mmHg"
